Source: patent US20260109715A1, “IMIDAZOPYRIDINE DERIVATIVES WITH BICYCLIC STRUCTURE” (PUBLIC UNIVERSITY CORPORATION YOKOHAMA CITY UNIVERSITY, priority 2022, published 2026)

Columns and labels:
human SMG1 enzyme = human SMG1 enzyme (Homo sapiens, UniProt Q96Q15); assay: Measurement of SMG1 kinase activity (ADP-Glo Kinase Assay); assay type: biochemical; conditions: purified human SMG1 enzyme 5 nM, Upf1 peptide substrate, ATP 4 μM; qAC50 synonymous with IC50; read-out: Test Example 1 ADP-Glo IC50
Procedure, shortened: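 Purified human SMG1 (5 nM) preincubated with compound (1% DMSO) 15 min at room temperature in HEPES pH 7.5 buffer with MnCl2, then reacted 60 min with Upf1 peptide (8 μg/mL) and 4 μM ATP. ADP formed measured by ADP-Glo luminescence; IC50 by 4-parameter logistic fit, normalised to DMSO (0%) and enzyme-free (−100%) wells.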

[1] = test system: Snhg1 transcript (NMD target gene) in EMT6 murine breast cancer cell line; assay: Measurement of NMD inhibitory activity in cells (increase in Snhg1 transcript, real-time PCR); design: species or system mouse; conditions: Mus musculus, 6 hours treatment, concentration giving 1/2 of maximum Snhg1 fold change of positive control, read-out: Test Example 2 Cell-based Snhg1 EC50
Procedure, shortened: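 EMT6 cells treated with serially diluted compound (2% DMSO final) for 6 h; Snhg1 transcript quantified by real-time PCR (ΔΔCT, Tbp endogenous control, untreated wells set to 1). EC50 taken as concentration giving half the maximum fold change of a known NMD inhibitor positive control.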

[2] = test system: Snhg1 transcript in tumor tissues of mice subcutaneously implanted with EMT6 murine breast cancer cell line; assay: Evaluation of NMD inhibitory activity in vivo (Snhg1 transcript in EMT6 tumor tissue after oral administration); conditions: 6 hours after administration, BALB/c mice
Protocol: The NMD inhibitory activity of a compound of the present invention or a pharmaceutically acceptable salt thereof in vivo can be measured, for example, by the method described below. Using mice subcutaneously implanted with EMT6 murine breast cancer cell line, tumor tissues 6 hours after oral administration of a test substance are excised, and the increase in Snhg1 transcript is quantified as an indicator of NMD inhibition in the tumor, in the same manner as in the in vitro method.
In this test, NMD inhibitory activity in tumor tissues was evaluated when a test substance was orally administered to mice subcutaneously implanted with EMT6 murine breast cancer cell line. As an indicator of NMD inhibitory activity, the increase in the transcript of Snhg1, an NMD target gene, was quantified. First, BALB/c mice were subcutaneously implanted with EMT6 cells (ATCC), and engraftment was confirmed 7 days later. Six hours after administration of the test substance, mice were euthanized, and the collected tumor tissues were cryopreserved. RNA was extracted from the tumor tissues using the illustra RNAspin Mini RNA Isolation kit (GE Healthcare Life Sciences). After synthesizing cDNA using the High-Capacity cDNA Reverse Transcription Kits (Applied Biosystems, 4368813), the cDNA was mixed with PrimeTime Gene Expression Master Mix (Integrated DNA Technologies) and various probes, and gene expression was quantified by QuantStudio 6 Flex (Thermo Fisher Scientific Inc.). For the probe for the Snhg1 gene, which is an NMD target, Mm.PT.58.44039547 (FAM) (Integrated DNA Technologies) was used, and for the probe for the Gapdh gene, which is an endogenous control, Mm99999915_g2 (VIC-PL) (Applied Biosystems) was used. The relative quantification of Snhg1 transcripts in each sample was calculated by the ΔΔCT method using Gapdh as an endogenous control, and the expression level of Snhg1 in each test substance administration group was calculated by setting the expression level of the Vehicle group (0.5% methylcellulose administration group) to 1.

Sequence of human SMG1 enzyme (Q96Q15 whole entry): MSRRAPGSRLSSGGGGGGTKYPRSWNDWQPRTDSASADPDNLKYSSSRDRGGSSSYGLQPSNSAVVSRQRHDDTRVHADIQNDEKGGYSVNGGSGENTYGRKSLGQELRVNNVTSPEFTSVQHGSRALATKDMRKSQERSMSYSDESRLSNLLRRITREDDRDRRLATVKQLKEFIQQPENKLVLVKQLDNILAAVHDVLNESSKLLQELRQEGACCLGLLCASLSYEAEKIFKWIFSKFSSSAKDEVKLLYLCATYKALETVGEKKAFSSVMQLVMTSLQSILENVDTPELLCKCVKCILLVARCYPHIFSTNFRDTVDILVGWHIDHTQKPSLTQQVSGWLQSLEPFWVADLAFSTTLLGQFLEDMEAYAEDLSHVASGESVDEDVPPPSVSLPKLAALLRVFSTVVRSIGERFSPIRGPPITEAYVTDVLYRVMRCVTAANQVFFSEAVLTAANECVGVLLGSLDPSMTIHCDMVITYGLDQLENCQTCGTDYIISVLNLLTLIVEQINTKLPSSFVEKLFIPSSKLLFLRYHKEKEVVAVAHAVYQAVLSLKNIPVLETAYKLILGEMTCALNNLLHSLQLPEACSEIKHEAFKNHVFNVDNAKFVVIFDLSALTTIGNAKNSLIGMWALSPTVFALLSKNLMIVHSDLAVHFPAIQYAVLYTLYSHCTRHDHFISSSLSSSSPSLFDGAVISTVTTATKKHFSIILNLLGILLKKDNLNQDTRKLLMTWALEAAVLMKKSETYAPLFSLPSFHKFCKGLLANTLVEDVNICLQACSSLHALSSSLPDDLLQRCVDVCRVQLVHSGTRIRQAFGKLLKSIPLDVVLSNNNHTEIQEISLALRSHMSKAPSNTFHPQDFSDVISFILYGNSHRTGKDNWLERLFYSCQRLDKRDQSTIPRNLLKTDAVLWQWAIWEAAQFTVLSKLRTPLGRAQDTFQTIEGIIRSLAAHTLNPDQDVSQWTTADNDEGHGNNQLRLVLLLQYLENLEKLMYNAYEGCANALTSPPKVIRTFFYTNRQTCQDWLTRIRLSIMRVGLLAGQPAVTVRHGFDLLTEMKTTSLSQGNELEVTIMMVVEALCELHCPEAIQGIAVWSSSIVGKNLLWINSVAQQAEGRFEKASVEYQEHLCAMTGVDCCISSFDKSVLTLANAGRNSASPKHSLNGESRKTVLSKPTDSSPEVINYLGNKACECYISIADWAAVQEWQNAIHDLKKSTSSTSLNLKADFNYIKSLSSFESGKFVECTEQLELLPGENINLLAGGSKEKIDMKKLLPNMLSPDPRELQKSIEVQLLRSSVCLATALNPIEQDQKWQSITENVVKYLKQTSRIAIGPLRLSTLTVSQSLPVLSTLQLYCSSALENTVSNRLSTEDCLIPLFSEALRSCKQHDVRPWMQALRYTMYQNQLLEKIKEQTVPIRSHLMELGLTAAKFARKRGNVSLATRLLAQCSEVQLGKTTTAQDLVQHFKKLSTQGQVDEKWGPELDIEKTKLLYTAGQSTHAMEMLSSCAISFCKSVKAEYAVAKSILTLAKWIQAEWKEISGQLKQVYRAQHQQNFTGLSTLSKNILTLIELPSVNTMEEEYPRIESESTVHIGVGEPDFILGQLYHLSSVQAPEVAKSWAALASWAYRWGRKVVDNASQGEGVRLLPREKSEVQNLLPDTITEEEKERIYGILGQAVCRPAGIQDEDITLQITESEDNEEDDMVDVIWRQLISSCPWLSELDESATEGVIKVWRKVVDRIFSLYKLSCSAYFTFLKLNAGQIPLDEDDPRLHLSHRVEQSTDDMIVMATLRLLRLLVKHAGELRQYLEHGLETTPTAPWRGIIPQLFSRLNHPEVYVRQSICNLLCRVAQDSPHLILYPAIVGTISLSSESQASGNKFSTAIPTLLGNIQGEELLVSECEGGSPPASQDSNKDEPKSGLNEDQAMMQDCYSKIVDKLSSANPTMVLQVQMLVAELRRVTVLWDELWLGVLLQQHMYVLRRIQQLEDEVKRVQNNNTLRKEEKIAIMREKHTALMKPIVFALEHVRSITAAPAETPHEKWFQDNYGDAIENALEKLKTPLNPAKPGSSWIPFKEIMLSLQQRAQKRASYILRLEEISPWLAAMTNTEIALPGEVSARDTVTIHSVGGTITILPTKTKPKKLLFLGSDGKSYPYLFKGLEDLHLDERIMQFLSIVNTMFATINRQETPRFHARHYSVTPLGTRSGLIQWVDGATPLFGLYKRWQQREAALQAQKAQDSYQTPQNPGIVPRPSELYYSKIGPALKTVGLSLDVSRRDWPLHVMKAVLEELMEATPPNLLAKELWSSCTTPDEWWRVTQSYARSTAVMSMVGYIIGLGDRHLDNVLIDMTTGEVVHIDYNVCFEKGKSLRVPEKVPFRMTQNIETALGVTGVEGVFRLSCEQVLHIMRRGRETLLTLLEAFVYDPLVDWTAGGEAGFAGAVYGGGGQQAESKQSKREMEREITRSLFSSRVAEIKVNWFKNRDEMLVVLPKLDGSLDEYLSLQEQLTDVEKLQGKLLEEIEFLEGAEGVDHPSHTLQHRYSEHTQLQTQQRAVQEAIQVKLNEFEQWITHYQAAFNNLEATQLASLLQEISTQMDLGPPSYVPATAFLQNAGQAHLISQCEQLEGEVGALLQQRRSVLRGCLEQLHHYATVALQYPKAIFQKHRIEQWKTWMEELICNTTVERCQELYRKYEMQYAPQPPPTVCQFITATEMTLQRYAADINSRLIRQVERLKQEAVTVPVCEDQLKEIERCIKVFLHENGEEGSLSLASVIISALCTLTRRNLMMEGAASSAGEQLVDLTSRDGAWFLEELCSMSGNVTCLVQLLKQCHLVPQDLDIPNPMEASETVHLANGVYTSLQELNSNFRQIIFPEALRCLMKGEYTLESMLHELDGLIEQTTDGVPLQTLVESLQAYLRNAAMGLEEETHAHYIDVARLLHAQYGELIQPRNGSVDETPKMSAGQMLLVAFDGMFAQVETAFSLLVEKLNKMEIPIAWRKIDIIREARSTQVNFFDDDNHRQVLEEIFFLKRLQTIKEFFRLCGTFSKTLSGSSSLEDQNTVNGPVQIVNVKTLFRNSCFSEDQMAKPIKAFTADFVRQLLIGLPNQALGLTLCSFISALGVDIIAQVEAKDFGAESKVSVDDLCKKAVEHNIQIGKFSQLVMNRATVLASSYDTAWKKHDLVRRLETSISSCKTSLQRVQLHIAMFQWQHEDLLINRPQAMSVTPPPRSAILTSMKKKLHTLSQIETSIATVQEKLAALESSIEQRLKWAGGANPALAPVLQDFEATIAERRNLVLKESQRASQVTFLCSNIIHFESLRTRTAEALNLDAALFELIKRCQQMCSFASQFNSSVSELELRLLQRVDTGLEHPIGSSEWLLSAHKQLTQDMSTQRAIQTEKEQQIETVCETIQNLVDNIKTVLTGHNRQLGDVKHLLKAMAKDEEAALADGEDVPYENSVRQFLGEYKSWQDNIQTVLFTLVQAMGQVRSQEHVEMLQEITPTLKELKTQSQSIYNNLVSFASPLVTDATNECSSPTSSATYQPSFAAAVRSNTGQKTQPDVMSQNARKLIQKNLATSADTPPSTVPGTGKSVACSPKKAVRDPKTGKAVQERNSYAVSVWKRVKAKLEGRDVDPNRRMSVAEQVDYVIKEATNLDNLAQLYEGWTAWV

| Compound | IC50 (human SMG1 enzyme) | EC50 [1] | Snhg1 fold change ([2]; 100 mg/kg oral) | Snhg1 fold change ([2]; 30 mg/kg oral) | Snhg1 fold change ([2]; 10 mg/kg oral) |
| --- | --- | --- | --- | --- | --- |
| COc1cc(C(C)C)ncc1-c1nccc2[nH]c(=O)c(-c3nc4cnc(Cl)cc4[nH]3)cc12 [Example 61, 3-(6-chloro-1H-imidazo[4,5-c]pyridin-2-yl)-5-[4-methoxy-6-(propan-2-yl)pyridin-3-yl]-1,6-naphthyridin-2(1H)-one] | 1.4 nM | 26 nM | 4.3 | – | – |
| CCc1nc(Cl)cc2[nH]c(-c3cc4c(-c5ccc(C)nc5OC)nccc4[nH]c3=O)nc12 [Example 68, 3-(6-chloro-4-ethyl-1H-imidazo[4,5-c]pyridin-2-yl)-5-(2-methoxy-6-methylpyridin-3-yl)-1,6-naphthyridin-2(1H)-one] | 0.62 nM | 10 nM | – | 8.3 | – |
| CCc1nc(Cl)cc2[nH]c(-c3cc4c(-c5cnc(OC)nc5OC)nccc4[nH]c3=O)nc12 [Example 70, 3-(6-chloro-4-ethyl-1H-imidazo[4,5-c]pyridin-2-yl)-5-(2,4-dimethoxypyrimidin-5-yl)-1,6-naphthyridin-2(1H)-one] | 0.56 nM | 15 nM | – | – | 3.6 |
| COc1ncc(-c2nccc3[nH]c(=O)c(-c4nc5c(NCC(F)F)nc(Cl)cc5[nH]4)cc23)c(OC)n1 [Example 72, 3-(6-chloro-4-[(2,2-difluoroethyl)amino]-1H-imidazo[4,5-c]pyridin-2-yl)-5-(2,4-dimethoxypyrimidin-5-yl)-1,6-naphthyridin-2(1H)-one] | 0.81 nM | 4.5 nM | – | 4.3 | – |
| Cc1nn(C(F)F)c(C)c1-c1nccc2[nH]c(=O)c(-c3nc4c(C)nc(Cl)cc4[nH]3)cc12 [Example 84, 3-(6-chloro-4-methyl-1H-imidazo[4,5-c]pyridin-2-yl)-5-[1-(difluoromethyl)-3,5-dimethyl-1H-pyrazol-4-yl]-1,6-naphthyridin-2(1H)-one] | 1 nM | 42 nM | – | – | 4.6 |
| Cc1nn(C(F)F)c(C)c1-c1nccc2[nH]c(=O)c(-c3nc4c(N5C[C@@H](O)C[C@H]5C)nc(Cl)cc4[nH]3)cc12 [Example 85, 3-{6-chloro-4-[(2R,4S)-4-hydroxy-2-methylpyrrolidin-1-yl]-1H-imidazo[4,5-c]pyridin-2-yl}-5-[1-(difluoromethyl)-3,5-dimethyl-1H-pyrazol-4-yl]-1,6-naphthyridin-2(1H)-one] | 0.39 nM | 0.47 nM | – | – | 6.9 |
| CCc1nc(Cl)cc2[nH]c(-c3cc4c(-c5c(C6CC6)nn(C(F)F)c5C)nccc4[nH]c3=O)nc12 [Example 92, 3-(6-chloro-4-ethyl-1H-imidazo[4,5-c]pyridin-2-yl)-5-[3-cyclopropyl-1-(difluoromethyl)-5-methyl-1H-pyrazol-4-yl]-1,6-naphthyridin-2(1H)-one] | 1.9 nM | 20 nM | – | – | 6.5 |
| C[C@@H]1COCCN1c1nc(Cl)cc2[nH]c(-c3cc4cnccc4[nH]c3=O)nc12.Cc1ccc(S(=O)(=O)O)cc1 [Example 117, 3-{6-chloro-4-[(3R)-3-methylmorpholin-4-yl]-1H-imidazo[4,5-c]pyridin-2-yl}-1,6-naphthyridin-2(1H)-one p-toluenesulfonate] | 5.1 nM | 80 nM | – | – | 5.1 |
| CS(=O)(=O)O.C[C@@H]1C[C@@H](F)CN1c1nc(Cl)cc2[nH]c(-c3cc4cnccc4[nH]c3=O)nc12 [Example 118, 3-{6-chloro-4-[(2R,4R)-4-fluoro-2-methylpyrrolidin-1-yl]-1H-imidazo[4,5-c]pyridin-2-yl}-1,6-naphthyridin-2(1H)-one methanesulfonate] | 1.8 nM | 34 nM | – | – | 9.1 |
| CS(=O)(=O)O.Cc1nccc2[nH]c(=O)c(-c3nc4c(N5CC[C@H]5C)nc(Cl)cc4[nH]3)cc12 [Example 123, 3-{6-chloro-4-[(2R)-2-methylazetidin-1-yl]-1H-imidazo[4,5-c]pyridin-2-yl}-5-methyl-1,6-naphthyridin-2(1H)-one methanesulfonate] | 1.6 nM | 46 nM | – | 4.4 | – |
| CS(=O)(=O)O.Cc1ccccc1-c1nccc2[nH]c(=O)c(-c3nc4c(NCC(F)(F)F)nc(Cl)cc4[nH]3)cc12 [Example 129, 3-{6-chloro-4-[(2,2,2-trifluoroethyl)amino]-1H-imidazo[4,5-c]pyridin-2-yl}-5-(2-methylphenyl)-1,6-naphthyridin-2(1H)-one methanesulfonate] | 3.5 nM | 17 nM | – | – | 9.0 |
| COc1ccc(F)cc1-c1nccc2[nH]c(=O)c(-c3nc4c(C)nc(Cl)cc4[nH]3)cc12.CS(=O)(=O)O [Example 131, 3-(6-chloro-4-methyl-1H-imidazo[4,5-c]pyridin-2-yl)-5-(5-fluoro-2-methoxyphenyl)-1,6-naphthyridin-2(1H)-one methanesulfonate] | 0.78 nM | 22 nM | – | – | 7.1 |
| CS(=O)(=O)O.Cc1nc(Cl)cc2[nH]c(-c3cc4c(-c5ccccc5OC(F)F)nccc4[nH]c3=O)nc12 [Example 132, 3-(6-chloro-4-methyl-1H-imidazo[4,5-c]pyridin-2-yl)-5-[2-(difluoromethoxy)phenyl]-1,6-naphthyridin-2(1H)-one methanesulfonate] | 3.5 nM | 50 nM | – | – | 7.4 |

Second part, led by results:

| IC50 (human SMG1 enzyme) | EC50 [1] | Compound | Snhg1 fold change ([2]; 100 mg/kg oral) | Snhg1 fold change ([2]; 30 mg/kg oral) | Snhg1 fold change ([2]; 10 mg/kg oral) |
| --- | --- | --- | --- | --- | --- |
| 1.8 nM | 34 nM | Cc1nc(Cl)cc2[nH]c(-c3cc4c(-c5c(C6CC6)nn(C(F)F)c5C)nccc4[nH]c3=O)nc12 [Example 91, 3-(6-chloro-4-methyl-1H-imidazo[4,5-c]pyridin-2-yl)-5-[3-cyclopropyl-1-(difluoromethyl)-5-methyl-1H-pyrazol-4-yl]-1,6-naphthyridin-2(1H)-one] | – | – | 5.9 |
| 3.2 nM | 55 nM | CS(=O)(=O)O.Cc1nccc2[nH]c(=O)c(-c3nc4c(N5CCOC[C@H]5C)nc(Cl)cc4[nH]3)cc12 [Example 124, 3-{6-chloro-4-[(3R)-3-methylmorpholin-4-yl]-1H-imidazo[4,5-c]pyridin-2-yl}-5-methyl-1,6-naphthyridin-2(1H)-one methanesulfonate] | – | – | 4.6 |
| 0.72 nM | 23 nM | CS(=O)(=O)O.Cc1nccc2[nH]c(=O)c(-c3nc4c(C5CCOCC5)nc(Cl)cc4[nH]3)cc12 [Example 125, 3-[6-chloro-4-(tetrahydro-2H-pyran-4-yl)-1H-imidazo[4,5-c]pyridin-2-yl]-5-methyl-1,6-naphthyridin-2(1H)-one methanesulfonate] | – | – | 6.5 |
| 1.6 nM | 29 nM | CS(=O)(=O)O.O=c1[nH]c2ccncc2cc1-c1nc2c(C3CCOCC3)nc(Cl)cc2[nH]1 [Example 126, 3-[6-chloro-4-(tetrahydro-2H-pyran-4-yl)-1H-imidazo[4,5-c]pyridin-2-yl]-1,6-naphthyridin-2(1H)-one methanesulfonate] | – | 4.1 | – |
| 0.96 nM | 34 nM | CCc1nccc2[nH]c(=O)c(-c3nc4c(C5CCOCC5)nc(Cl)cc4[nH]3)cc12.CS(=O)(=O)O [Example 127, 3-[6-chloro-4-(tetrahydro-2H-pyran-4-yl)-1H-imidazo[4,5-c]pyridin-2-yl]-5-ethyl-1,6-naphthyridin-2(1H)-one methanesulfonate] | – | – | 6.2 |
| 4.5 nM | 56 nM | CC1(c2nccc3[nH]c(=O)c(-c4nc5c(C6CCOCC6)nc(Cl)cc5[nH]4)cc23)CC1 [Example 128, 3-[6-chloro-4-(tetrahydro-2H-pyran-4-yl)-1H-imidazo[4,5,c]pyridin-2-yl]-5-(1-methylcyclopropyl)-1,6-naphthyridin-2(1H)-one methanesulfonate] | – | 6.2 | – |
